Values of other authors in patent US20050080252A1, “Process for preparing antiviral nucleoside derivatives” (Roche Palo Alto LLC, priority 2003, published 2005).

Key:
[1] = unlike ribavirin

NC(=O)c1ncn([C@H]2O[C@@H](CO)[C@H](O)[C@@H]2O)n1 [levovirin, 1-(3S,4R-dihydroxy-5S-hydroxymethyl-tetrahydro-furan-2S-yl)-1H-[1,2,4]triazole-3 carboxylic acid amide]
direct antiviral activity [1]: does not have direct detectable antiviral activity | immune response / antiviral Th1 cytokine expression (Th1 cytokine expression): stimulates immune responses by enhancing antiviral Th1 cytokine expression
